In general, logP refers to a log measure of how a compound divides between an organic and an aqueous phase. Read a high logP as higher lipophilicity.

Results on 109 molecules are retold here after the OPERA property sets (Mansouri et al. 2018).

SMILES strings stand for the structures. Where a SMILES comes first, the peptide text is derived from it. The star is where a group is joined. Boc = CC(C)(C)OC(=O)*

`CCn1cc(C(=O)O)c(=O)c2ccc(C)nc21` registered a log partition coefficient (logP) of 1.59.

Regarding `CC(=O)OC1C(=O)C2(C)C(O)CC3OCC3(OC(C)=O)C2C(OC(=O)c2ccccc2)C2(O)CC(OC(=O)C(O)Cc3ccccc3)C(C)=C1C2(C)C` (centres undefined), the log partition coefficient (logP) was determined as 2.9.

The molecule `O=[N+]([O-])C=C1NCCN1Cc1ccc(Cl)nc1` displayed a logP of -0.19.

Molecule `ClC(Cl)(Cl)c1nc(C(Cl)(Cl)Cl)nc(C(Cl)(Cl)Cl)n1` showed a logP of 3.75.

`CCCCC(=O)OCCOCn1cnc2c(=O)[nH]c(N)nc21` registered a logP of 0.37.

In turn, `CC(C)(C)C(=O)C(C#N)=NNc1cc(C(F)(F)F)ccc1Cl` had a log partition coefficient (logP) of 5.31.

`COc1nc(C(Cl)(Cl)Cl)nc(C(Cl)(Cl)Cl)n1` displayed a logP of 3.64.

Take `NS(=O)(=O)c1cc(C(=O)O)cc(N2CCCC2)c1Oc1ccccc1`: the logP turned out to be 3.92.

The molecule `CCN1C(=O)C(=O)c2ccc(Cl)cc2C1=O` registered a logP of 1.79.

As to `CC(=O)OCN1C(=O)C2=C(CCCC2)C1=O`, the logP is 1.15.

In turn, `N=c1ccn2c(n1)OC1C(O)C(CCl)OC12` (centres undefined) showed a logP of -3.1.

Molecule `COC(O)Cn1c(Br)cnc1[N+](=O)[O-]` (centres undefined) came in with a lipophilicity (logP) of 0.16.

Turning to `CCN1C(=O)C(=O)c2c(OC)cccc2C1=O`, the log partition coefficient (logP) was determined as 0.9.

In the case of `O=c1ccn(C2C=C(CO)C(O)C2O)c(=O)[nH]1` (centres undefined), the logP is -2.19.

`CC1=C(N2CC2)C(=O)C(Br)=C(N2CC2)C1=O` returned a logP of 1.36.

In turn, `COc1ccc2ccc(=O)oc2c1` had a logP of 1.74.

The molecule `CC(C)N(C=Nc1ccn(C2OC(CO)C(O)C2O)c(=O)n1)C(C)C` (centres undefined) came in with a logP of 0.01.

With `CC1COC(Cn2cncn2)(c2ccc(Oc3ccc(Cl)cc3)cc2Cl)O1` (centres undefined), the lipophilicity (logP) came to 4.3.

`CCSc1nc(NC(C)C)nc(NC(C)C)n1` returned a logP of 3.81.

As for `Cc1ncc([N+](=O)[O-])n1CCSC(=S)N(C)C`, the lipophilicity (logP) worked out at 1.28.

For the molecule `COc1c(O)cc2c(c1OC)-c1ccc(SC)c(=O)cc1C(NC(C)=O)CC2` (centres undefined), the logP stood at 1.43.

`C#CCNC(=O)C1(O)C(C)CC2C3CCC4=CC(=O)C=CC4(C)C3(F)C(O)CC21C` (centres undefined): the lipophilicity (logP) was 2.

Take `CCN(CC)CCSC(=NO)c1nc(C)no1`: the log partition coefficient (logP) came to 0.71.

With `Cc1ncc([N+](=O)[O-])n1CCNC(=O)OC1CCCCC1`, the logP was 2.01.

Molecule `CCC(=O)OC1(c2ccccc2)CCN(C)C(C)C1C` (centres undefined) gave a logP of 3.13.

Regarding `O=c1cc[nH]cc1`, the logP is -1.3.

As for `CCN(CC)C(=O)COC(=O)c1ccccc1O`, the logP is 1.99.

For the molecule `Cc1ccc(Cl)c(OCC(O)CNC(C)(C)C)c1` (centres undefined), the log partition coefficient (logP) is 2.97.

Molecule `O=c1[nH]c(Nc2ccccc2)nc2c1ncn2CC(O)CO` (centres undefined) showed a logP of 0.4.

`CCCCCNC(=O)C1(O)C(C)CC2C3CCC4=CC(=O)C=CC4(C)C3(F)C(O)CC21C` (centres undefined): the lipophilicity (logP) stood at 3.64.

Regarding `CC(C)(C)C(=O)CC(C(O)C(C)(C)C)n1cncn1` (centres undefined), the logP was determined as 1.95.

In turn, `c1ccc(OCc2cccc(CN3CCCC3)c2)cc1` yielded a logP of 3.75.

`O=C(Cn1ccnc1[N+](=O)[O-])NCCCO`: the lipophilicity (logP) is -1.27.

As for `Cc1cc(O)cc(Br)c1O`, the lipophilicity (logP) is 1.38.

Take `Clc1cc(Cl)cc(-c2c(Cl)cc(Cl)c(Cl)c2Cl)c1`: the logP is 7.1.

For `CCOC(=O)COC(=O)c1cc(Oc2ccc(C(F)(F)F)cc2Cl)ccc1[N+](=O)[O-]`, the log partition coefficient (logP) came out at 3.65.

`CCCCCCOc1ccccc1NC(=O)OCCN1CCOCC1` came in with a logP of 4.24.

`CNc1nccn2cc(-c3ccc(S(C)=O)cc3OC)nc12` (centres undefined) registered a log partition coefficient (logP) of 1.88.

On to `N#CC(C#N)=NNc1c(Cl)cccc1Cl`, for which the logP came to 4.51.

The molecule `CC(C)CNCCCS(=O)(=O)c1ccc(S(N)(=O)=O)s1` displayed a logP of -0.35.

`NC(=O)Cc1cccc2cccnc12` gave a logP of 1.87.

For the molecule `CC(C)(C)OC(=O)NC(Cc1ccccc1)C(=O)NC(Cc1ccc(O)cc1)C(=O)O` (stereo not drawn) (Boc-Phe-Tyr-OH; configuration not given here), the logP was determined as 2.79.

For the molecule `CN(C)C=Nc1ccn(C2OC(CO)C(O)C2O)c(=O)n1` (centres undefined), the logP is -1.68.

`Nc1c2ncn(C3OC(CO)CC3F)c2nc[n+]1[O-]` (centres undefined) yielded a log partition coefficient (logP) of -1.38.

For `O=[N+]([O-])c1nccn1COC(CO)CO`, the logP was -1.17.

`CCN(CC)S(=O)(=O)N(CC)C1C=C2c3cccc4[nH]cc(c34)CC2N(C)C1` (centres undefined) had a logP of 3.09.

With `Clc1cc(Cl)c(-c2cc(Cl)c(Cl)c(Cl)c2)c(Cl)c1`, the logP came to 7.25.

In turn, `CC(C)(C)N(NC(=O)c1ccccc1F)C(=O)c1ccccc1Cl` yielded a lipophilicity (logP) of 2.63.

As to `C#CCC(O)(c1cccnc1)c1ccc(Cl)c(Cl)c1` (centres undefined), the logP turned out to be 2.42.

Consider `CN1CCC(=C2c3ccccc3CCc3cccnc32)CC1`, for which the logP turned out to be 3.59.

`CCN(C=Nc1ccn(C2CC(O)C(CO)O2)c(=O)n1)CC` (centres undefined) came in with a logP of -0.59.

Regarding `CC1(CO)COC(Cn2cncn2)(c2ccc(Cl)cc2Cl)OC1` (centres undefined), the logP turned out to be 2.1.

`O=c1[nH]nc(SCc2ccccc2)[nH]1` yielded a log partition coefficient (logP) of 1.47.

As for `OC1CCN(CCCc2ccccc2COc2ccccc2)CC1`, the logP stood at 3.21.

The molecule `Cc1ccccc1C(=O)OCC1CCC(n2cnc3c(=O)[nH]cnc32)O1` (centres undefined) showed a logP of 1.02.

On to `O=C(c1ccc(F)cc1)C1CCN(CCn2c(=O)[nH]c3ccccc3c2=O)CC1`, for which the logP stood at 3.29.

In turn, `CCN1C(=O)C(=O)c2ccccc2C1=O` gave a logP of 1.13.

`CCOc1ccc(C2(C(=O)OC)CC(F)(F)C2(F)F)cc1` (centres undefined) gave a logP of 4.06.

In the case of `CCC(C)(C)c1ccc(C2CCCC(O)C2)c(O)c1` (centres undefined), the lipophilicity (logP) is 4.32.

`CCN1CC(C(O)C(CC2CCCCC2)NC(=O)C(Cc2c[nH]cn2)NC(=O)C(Cc2ccc(OC)cc2)NC(=O)C(C)C)OC1=O` (centres undefined): the log partition coefficient (logP) was 2.85.

As for `COc1nc(N)nc(C(Cl)(Cl)Cl)n1`, the log partition coefficient (logP) stood at 2.39.

The molecule `CCCCCOC(=O)C(C(=O)OCCCCC)=C1SCCS1` registered a log partition coefficient (logP) of 5.6.

Take `COCC(Cn1ccnc1[N+](=O)[O-])OC` (centres undefined): the lipophilicity (logP) was found to be 0.06.

`CN(C)N=Nc1ccc2oc3ccccc3c2c1` gave a lipophilicity (logP) of 4.55.

Consider `CC(=O)OC(C(=O)NC1C(=O)N2C(C(=O)O)=C(C)CSC12)c1ccccc1` (centres undefined), for which the logP amounted to 1.02.

The molecule `Clc1ccc(Cl)c(-c2ccc(Cl)c(Cl)c2Cl)c1` gave a lipophilicity (logP) of 6.85.

Consider `CCCN(C=Nc1ccn(C2CC(O)C(CO)O2)c(=O)n1)CCC` (centres undefined), for which the logP amounted to 0.4.

Turning to `Clc1cc(Cl)c(-c2ccc(Cl)c(Cl)c2Cl)c(Cl)c1`, the logP worked out at 7.25.

The molecule `Nc1nc(=O)n(C2CCC(CO)O2)cc1I` (centres undefined) had a lipophilicity (logP) of -0.31.

In the case of `CC(=O)N(CCO)c1c(I)c(C(=O)NC(CO)CO)c(I)c(C(=O)NC(CO)CO)c1I`, the log partition coefficient (logP) is -2.33.

`CCCCCc1ccc(OCC(OC(=O)n2ccnc2)C(C)(C)C)cc1` (centres undefined) registered a lipophilicity (logP) of 5.26.

The molecule `CCCn1c(=O)c2nc(-c3ccccc3N)[nH]c2n(CCC)c1=O` returned a logP of 3.54.

For `CCCCN1C(=O)C(=O)c2ccccc2C1=O`, the log partition coefficient (logP) is 2.18.

Take `C1CC2=NOS3=C2C(=NO3)C1`: the logP turned out to be 1.1.

As to `Clc1ccc(Sc2nc(C(Cl)(Cl)Cl)nc(C(Cl)(Cl)Cl)n2)cc1`, the logP was found to be 6.67.

For the molecule `O=C(O)Cc1nn(Cc2nc3cc(Br)ccc3s2)c(=O)c2ccccc12`, the logP stood at 3.35.

As to `CC(C)CN1C(=O)NC(=O)C(=O)C1=O`, the logP amounted to 0.76.

The molecule `Clc1cc(-c2cc(Cl)c(Cl)c(Cl)c2Cl)c(Cl)c(Cl)c1Cl` gave a logP of 8.68.

Regarding `CC(C)NC(=O)C1(O)C(C)CC2C3CCC4=CC(=O)C=CC4(C)C3(F)C(O)CC21C` (centres undefined), the logP is 2.43.

In turn, `COCC(O)Cn1c(C)cnc1[N+](=O)[O-]` (centres undefined) registered a logP of 0.03.

`CS(=O)(=O)c1ccc2ccccc2c1` yielded a logP of 1.74.

In turn, `O=C(NN=Cc1ccco1)Nc1ccccc1` returned a logP of 2.52.

Molecule `O=C(O)c1ccccc1N1C(=O)CCC1=O` gave a logP of 1.55.

In turn, `COc1cc(C)c2c(c1OC)-c1ccc(NCc3ccccc3)c(=O)cc1C(NC(C)=O)CC2` (centres undefined) showed a log partition coefficient (logP) of 3.58.

On to `CC1NC(=O)C(CC(=O)NC(Cc2cn(C(=O)OCc3ccccc3)c3ccccc23)C(=O)NC(Cc2ccccc2)C(=O)N(C)Cc2ccccc2)NC1=O` (centres undefined), for which the log partition coefficient (logP) turned out to be 5.66.

In turn, `CCC(C)C(=O)OC1CCC=C2C=CC(C)C(CCC(O)CC(O)CC(=O)O)C21` (centres undefined) had a logP of 3.6.

The molecule `COC(=O)c1ccc(OCC(OC(=O)n2ccnc2)C(C)(C)C)cc1` (centres undefined) returned a logP of 3.59.

For the molecule `COC1=C(C)C(=O)c2c(c(COC(N)=O)c3n2CCC3OC(C)=O)C1=O` (centres undefined), the lipophilicity (logP) came out at 1.54.

Turning to `Cc1ccc(Cl)c(C)c1`, the lipophilicity (logP) is 3.83.

Take `COc1ccc(-n2ccc(=O)c(O)c2C)cc1`: the lipophilicity (logP) stood at 1.27.

For `OCCOc1ccccc1Cl`, the logP worked out at 1.81.

The molecule `O=C(CCn1cnc([N+](=O)[O-])n1)NCCO` yielded a logP of -1.32.

For the molecule `CCCOc1ccc2ccc(=O)oc2c1`, the logP amounted to 2.86.

With `Nc1nc2c(ncn2C2OC(CO)CC2F)c(=O)[nH]1` (centres undefined), the logP was -1.18.

Molecule `OCC1COC(Cn2cncn2)(c2ccc(Cl)cc2Cl)O1` (centres undefined) showed a logP of 1.76.

The molecule `COc1nc(N(C)C)nc(C(Cl)(Cl)Cl)n1` returned a logP of 3.33.

`COc1ccc2cc(C(C)C(=O)OCC(N)=O)ccc2c1` (centres undefined) gave a lipophilicity (logP) of 2.06.

With `CCCCC(=O)OC(C(=O)NC1C(=O)N2C(C(=O)O)=C(C)CSC12)c1ccccc1` (centres undefined), the logP is 2.23.

On to `CC(C)NCC(COc1cccc2ccccc12)OS(=O)(=O)O` (centres undefined), for which the log partition coefficient (logP) is 1.16.

In turn, `CNC(=NC#N)NCCSCc1nccs1` yielded a log partition coefficient (logP) of 0.89.

In the case of `CCOC(=O)c1ccc(OCC(OC(=S)n2ccnc2)C(C)(C)C)cc1` (centres undefined), the logP is 4.77.

The molecule `CC(C)N(C=Nc1ccn(C2CC(O)C(CO)O2)c(=O)n1)C(C)C` (centres undefined) gave a lipophilicity (logP) of 0.17.

On to `O=C(NN1CCCCC1)NS(=O)(=O)c1ccc(Cl)cc1`, for which the logP amounted to 0.84.

In the case of `CSCCNC(=O)C(F)(F)Cn1cnc([N+](=O)[O-])n1`, the logP came out at 0.41.

Regarding `O=C(CCn1ccnc1[N+](=O)[O-])NCCO`, the lipophilicity (logP) is -1.08.

Turning to `CCN1C(=O)C(=O)c2c(C#N)cccc2C1=O`, the logP worked out at 0.41.

For `O=C(c1c[nH]c2ccccc12)C(F)(F)F`, the logP is 3.44.

Molecule `CC1CC2C3CCC4=CC(=O)C=CC4(C)C3(F)C(O)CC2(C)C1(O)C(=O)NCc1ccc([N+](=O)[O-])cc1` (centres undefined) showed a lipophilicity (logP) of 3.44.

Molecule `Clc1cccc(-c2c(Cl)c(Cl)c(Cl)c(Cl)c2Cl)c1` had a logP of 7.3.
